Test results published in ChEMBL document CHEMBL1140860, “Synthesis and evaluation of dihydroartemisinin and dihydroartemisitene acetal dimers showing anticancer and antiprotozoal activity” (Bioorg Med Chem, 2009).

Assays:
[1] = test system: CAKI-1; assay: Growth inhibition of human Caki1 cells after 48 hrs by sulforhodamine B assay; type: functional; conditions: CAKI-1, 48 h
[2] = Selectivity index, ratio of TC50 for african green monkey (Cercopithecus aethiops) Vero cells to IC50 for chloroquine-sensitive Plasmodium falciparum D6; type: toxicity, cell-based
[3] = test system: NCI-H522; assay: Growth inhibition of human NCI-H522 cells after 48 hrs by sulforhodamine B assay; type: functional; conditions: NCI-H522, 48 h
[4] = test system: NCI/ADR-RES; assay: Growth inhibition of human NCI/ADR-RES cells after 48 hrs by sulforhodamine B assay; type: functional
[5] = test system: OVCAR-5; assay: Growth inhibition of human OVCAR5 cells after 48 hrs by sulforhodamine B assay; type: functional; conditions: OVCAR-5, 48 h
[6] = test system: TK-10; assay: Growth inhibition of human TK10 cells after 48 hrs by sulforhodamine B assay; type: functional; conditions: TK-10, 48 h
[7] = test system: RXF 393; assay: Growth inhibition of human RXF393 cells after 48 hrs by sulforhodamine B assay; type: functional; conditions: RXF 393, 48 h
[8] = test system: ACHN; assay: Growth inhibition of human ACHN cells after 48 hrs by sulforhodamine B assay; type: functional
[9] = test system: NCI-H460; assay: Growth inhibition of human NCI-H460 cells after 48 hrs by sulforhodamine B assay; type: functional; conditions: NCI-H460, 48 h
[10] = test system: SK-MEL-2; assay: Growth inhibition of human SK-MEL-2 cells after 48 hrs by sulforhodamine B assay; type: functional; conditions: SK-MEL-2, 48 h
[11] = test system: DU-145; assay: Growth inhibition of human DU145 cells after 48 hrs by sulforhodamine B assay; type: functional; conditions: DU-145, 48 h
[12] = test system: K562; assay: Growth inhibition of human K562 cells after 48 hrs by sulforhodamine B assay; type: functional; conditions: K562, 48 h
[13] = test system: SR; assay: Growth inhibition of human SR cells after 48 hrs by sulforhodamine B assay; type: functional
[14] = test system: PC-3; assay: Growth inhibition of human PC3 cells after 48 hrs by sulforhodamine B assay; type: functional; conditions: PC-3, 48 h
[15] = test system: NCI-H226; assay: Growth inhibition of human NCI-H226 cells after 48 hrs by sulforhodamine B assay; type: functional; conditions: NCI-H226, 48 h
[16] = Growth inhibition of human […] cells after 48 hrs by sulforhodamine B assay; type: functional
[17] = test system: T47D; assay: Growth inhibition of human T47D cells after 48 hrs by sulforhodamine B assay; type: functional
[18] = test system: Malme-3M; assay: Growth inhibition of human MALME-3M cells after 48 hrs by sulforhodamine B assay; type: functional
[19] = test system: UACC-257; assay: Growth inhibition of human UACC257 cells after 48 hrs by sulforhodamine B assay; type: functional; conditions: UACC-257, 48 h
[20] = test system: HOP-62; assay: Growth inhibition of human HOP62 cells after 48 hrs by sulforhodamine B assay; type: functional; conditions: HOP-62, 48 h
[21] = test system: A549; assay: Growth inhibition of human A549 cells after 48 hrs by sulforhodamine B assay; type: functional; conditions: A549, 48 h
[22] = test system: SK-OV-3; assay: Growth inhibition of human SKOV3 cells after 48 hrs by sulforhodamine B assay; type: functional; conditions: SK-OV-3, 48 h
[23] = test system: SK-MEL-5; assay: Growth inhibition of human SK-MEL-5 cells after 48 hrs by sulforhodamine B assay; type: functional; conditions: SK-MEL-5, 48 h
[24] = test system: HT-29; assay: Growth inhibition of human HT-29 cells after 48 hrs by sulforhodamine B assay; type: functional; conditions: HT-29, 48 h
[25] = test system: Plasmodium falciparum; assay: Antimalarial activity after 72 hrs against chloroquine-resistant Plasmodium falciparum W2 infected erythrocytes by LDH assay; type: functional, organism-based; conditions: W2, 72 h
[26] = test system: SN12C; assay: Growth inhibition of human SN12C cells after 48 hrs by sulforhodamine B assay; type: functional
[27] = test system: HCC 2998; assay: Growth inhibition of human HCC2998 cells after 48 hrs by sulforhodamine B assay; type: functional; conditions: HCC 2998, 48 h
[28] = Selectivity index, ratio of TC50 for african green monkey (Cercopithecus aethiops) Vero cells to IC50 for chloroquine-resistant Plasmodium falciparum W2; type: toxicity, cell-based
[29] = test system: LOX IMVI; assay: Growth inhibition of human LOXIMVI cells after 48 hrs by sulforhodamine B assay; type: functional
[30] = test system: MDA-MB-231; assay: Growth inhibition of human MDA-MB-231 cells after 48 hrs by sulforhodamine B assay; type: functional; conditions: MDA-MB-231, 48 h
[31] = test system: KM12; assay: Growth inhibition of human KM12 cells after 48 hrs by sulforhodamine B assay; type: functional; conditions: KM12, 48 h
[32] = test system: NCI-H23; assay: Growth inhibition of human NCI-H23 cells after 48 hrs by sulforhodamine B assay; type: functional; conditions: NCI-H23, 48 h
[33] = Cytotoxicity against african green monkey Vero cells after 48 hrs by neutral red assay; type: cell-based; conditions: chlorocebus sabaeus, read-out: TC50
[34] = test system: NCI-H322M; assay: Growth inhibition of human NCI-H322M cells after 48 hrs by sulforhodamine B assay; type: functional
[35] = test system: HCT-15; assay: Growth inhibition of human HCT15 cells after 48 hrs by sulforhodamine B assay; type: functional; conditions: HCT-15, 48 h
[36] = test system: Plasmodium falciparum; assay: Antimalarial activity after 72 hrs against chloroquine-sensitive Plasmodium falciparum D6 infected in erythrocytes by LDH assay; type: functional, organism-based; conditions: D6, 72 h
[37] = test system: SW-620; assay: Growth inhibition of human SW620 cells after 48 hrs by sulforhodamine B assay; type: functional; conditions: SW-620, 48 h
[38] = Growth inhibition of human Hs 578T cells after 48 hrs by sulforhodamine B assay; type: functional
[39] = test system: OVCAR-4; assay: Growth inhibition of human OVCAR4 cells after 48 hrs by sulforhodamine B assay; type: functional; conditions: OVCAR-4, 48 h
[40] = test system: HCT-116; assay: Growth inhibition of human HCT116 cells after 48 hrs by sulforhodamine B assay; type: functional; conditions: HCT-116, 48 h
[41] = test system: M14; assay: Growth inhibition of human M14 cells after 48 hrs by sulforhodamine B assay; type: functional; conditions: M14, 48 h
[42] = test system: COLO 205; assay: Growth inhibition of human COLO205 cells after 48 hrs by sulforhodamine B assay; type: functional; conditions: COLO 205, 48 h
[43] = test system: UO-31; assay: Growth inhibition of human UO31 cells after 48 hrs by sulforhodamine B assay; type: functional; conditions: UO-31, 48 h
[44] = test system: CCRF-CEM; assay: Growth inhibition of human CCRF-CEM cells after 48 hrs by sulforhodamine B assay; type: functional
[45] = test system: SF-295; assay: Growth inhibition of human SF295 cells after 48 hrs by sulforhodamine B assay; type: functional; conditions: SF-295, 48 h
[46] = test system: 786-0; assay: Growth inhibition of human 786-0 cells after 48 hrs by sulforhodamine B assay; type: functional; conditions: 786-0, 48 h
[47] = test system: SK-MEL-28; assay: Growth inhibition of human SK-MEL-28 cells after 48 hrs by sulforhodamine B assay; type: functional; conditions: SK-MEL-28, 48 h
[48] = test system: MDA-MB-435; assay: Growth inhibition of human MDA-MB-435 cells after 48 hrs by sulforhodamine B assay; type: functional; conditions: MDA-MB-435, 48 h
[49] = test system: HL-60; assay: Growth inhibition of human HL-60(TB) cells after 48 hrs by sulforhodamine B assay; type: functional; conditions: HL-60, 48 h
[50] = test system: MCF7; assay: Growth inhibition of human MCF7 cells after 48 hrs by sulforhodamine B assay; type: functional; conditions: MCF7, 48 h

`C[C@H]1[C@@H](OCC(=O)CO[C@H]2O[C@@H]3O[C@@]4(C)CC[C@H]5[C@H](C)CC[C@@H]([C@H]2C)[C@@]35OO4)O[C@@H]2O[C@@]3(C)CC[C@H]4[C@H](C)CC[C@@H]1[C@@]24OO3` gave a GI50 [1] of 0.077 µM, a selectivity ratio [2] greater than 6800 and a GI50 [3] of 0.018 µM. The GI50 [4] was 0.04 µM, the GI50 [5] was less than 0.01 µM and the GI50 [6] was 0.278 µM. The GI50 [7] was 12.6 µM, the GI50 [8] was 0.026 µM and the GI50 [9] was less than 0.01 µM. The GI50 [10] was 0.031 µM, the GI50 [11] was 11.2 µM and the GI50 [12] was less than 0.01 µM. It also gave a GI50 [13] of less than 0.01 µM, a GI50 [14] of less than 0.01 µM and a GI50 [15] of 0.331 µM. For the same compound, the GI50 [16] was less than 0.01 µM, the GI50 [17] was less than 0.01 µM and the GI50 [18] was less than 0.01 µM. The GI50 [19] was less than 0.01 µM, the GI50 [20] was 11.9 µM and the GI50 [21] was less than 0.01 µM. For the same compound, the GI50 [22] was 15.8 µM, the GI50 [23] was less than 0.01 µM and the GI50 [24] was less than 0.01 µM. For the same compound, the IC50 [25] was 0.3 µM, the GI50 [26] was less than 0.01 µM and the GI50 [27] was less than 0.01 µM. The selectivity ratio [28] was greater than 23800, the GI50 [29] was less than 0.01 µM and the GI50 [30] was 3.33 µM. For the same compound, the GI50 [31] was less than 0.01 µM, the GI50 [32] was less than 0.01 µM and the CC50 at 48 h [33] was greater than 7640 µM. It also gave a GI50 [34] of 8.42 µM, a GI50 [35] of less than 0.01 µM and an IC50 [36] of 1.1 µM. For the same compound, the GI50 [37] was less than 0.01 µM, the GI50 [38] was 16.2 µM and the GI50 [39] was 0.069 µM. For the same compound, the GI50 [40] was less than 0.01 µM, the GI50 [41] was less than 0.01 µM and the GI50 [42] was less than 0.01 µM. For the same compound, the GI50 [43] was less than 0.01 µM, the GI50 [44] was less than 0.01 µM and the GI50 [45] was 7.24 µM. It also gave a GI50 [46] of 0.093 µM, a GI50 [47] of 11.7 µM and a GI50 [48] of 0.017 µM. The GI50 [49] was less than 0.01 µM and the GI50 [50] was less than 0.01 µM.
Work on `C[C@H]1[C@@H](O[C@H]2CC[C@@H](O[C@H]3O[C@@H]4O[C@@]5(C)CC[C@H]6[C@H](C)CC[C@@H]([C@H]3C)[C@@]46OO5)CC2)O[C@@H]2O[C@@]3(C)CC[C@H]4[C@H](C)CC[C@@H]1[C@@]24OO3` yielded a GI50 [1] of 0.037 µM, a selectivity ratio [2] greater than 1590 and a GI50 [3] of 0.021 µM. The GI50 [4] was 0.077 µM, the GI50 [5] was 0.152 µM and the GI50 [6] was 0.029 µM. It also gave a GI50 [7] of 0.018 µM, a GI50 [8] of 0.027 µM and a GI50 [9] of 0.017 µM. It also gave a GI50 [10] of 0.024 µM, a GI50 [11] of 0.028 µM and a GI50 [12] of 0.014 µM. The GI50 [13] was 0.014 µM, the GI50 [14] was 0.011 µM and the GI50 [15] was 0.347 µM. For the same compound, the GI50 [16] was less than 0.005 µM, the GI50 [17] was less than 0.005 µM and the GI50 [18] was 0.044 µM. The GI50 [19] was 0.027 µM, the GI50 [20] was 12.3 µM and the GI50 [21] was 0.02 µM. The GI50 [22] was 0.034 µM, the GI50 [23] was 0.017 µM and the GI50 [24] was 0.026 µM. For the same compound, the IC50 [25] was 8 µM, the GI50 [26] was 0.025 µM and the GI50 [27] was 0.018 µM. The selectivity ratio [28] was greater than 915, the GI50 [29] was 0.017 µM and the GI50 [30] was 0.092 µM. For the same compound, the GI50 [31] was 0.012 µM, the GI50 [32] was 0.022 µM and the CC50 at 48 h [33] was greater than 7340 µM. For the same compound, the GI50 [34] was 16.6 µM, the GI50 [35] was 0.014 µM and the IC50 [36] was 4.6 µM. For the same compound, the GI50 [37] was 0.012 µM, the GI50 [38] was 0.049 µM and the GI50 [39] was 0.024 µM. For the same compound, the GI50 [40] was 0.016 µM, the GI50 [41] was 0.027 µM and the GI50 [42] was 0.007 µM. The GI50 [43] was 0.018 µM, the GI50 [44] was less than 0.005 µM and the GI50 [45] was 0.028 µM. For the same compound, the GI50 [46] was 0.031 µM, the GI50 [47] was 0.085 µM and the GI50 [48] was 0.028 µM. The GI50 [49] was 0.017 µM and the GI50 [50] was 0.016 µM.
